Data as given in BindingDB's records for doi:10.1016/j.ejmech.2021.113795 (Hong Kong Polytechnic University, 2021).

Tests used:
[1] = molecular target: ATP-dependent translocase ABCB1 (Homo sapiens, UniProt P08183); test: Inhibition of P-glycoprotein in human LCC6MDR cells assessed as reversal fold by measuring reduction in paclitaxel by measuring paclitaxel IC50 at 1 uM after 5 days by Cell Titer-Glo luminescence assay
[2] = Inhibition of MRP1 in human 2008/MRP1 cells assessed as reversal of doxorubicin resistance by measuring doxorubicin IC50 at 1 uM after 5 days by Cell Titer-Glo luminescence assay

ATP-dependent translocase ABCB1, sequence (P08183 whole entry): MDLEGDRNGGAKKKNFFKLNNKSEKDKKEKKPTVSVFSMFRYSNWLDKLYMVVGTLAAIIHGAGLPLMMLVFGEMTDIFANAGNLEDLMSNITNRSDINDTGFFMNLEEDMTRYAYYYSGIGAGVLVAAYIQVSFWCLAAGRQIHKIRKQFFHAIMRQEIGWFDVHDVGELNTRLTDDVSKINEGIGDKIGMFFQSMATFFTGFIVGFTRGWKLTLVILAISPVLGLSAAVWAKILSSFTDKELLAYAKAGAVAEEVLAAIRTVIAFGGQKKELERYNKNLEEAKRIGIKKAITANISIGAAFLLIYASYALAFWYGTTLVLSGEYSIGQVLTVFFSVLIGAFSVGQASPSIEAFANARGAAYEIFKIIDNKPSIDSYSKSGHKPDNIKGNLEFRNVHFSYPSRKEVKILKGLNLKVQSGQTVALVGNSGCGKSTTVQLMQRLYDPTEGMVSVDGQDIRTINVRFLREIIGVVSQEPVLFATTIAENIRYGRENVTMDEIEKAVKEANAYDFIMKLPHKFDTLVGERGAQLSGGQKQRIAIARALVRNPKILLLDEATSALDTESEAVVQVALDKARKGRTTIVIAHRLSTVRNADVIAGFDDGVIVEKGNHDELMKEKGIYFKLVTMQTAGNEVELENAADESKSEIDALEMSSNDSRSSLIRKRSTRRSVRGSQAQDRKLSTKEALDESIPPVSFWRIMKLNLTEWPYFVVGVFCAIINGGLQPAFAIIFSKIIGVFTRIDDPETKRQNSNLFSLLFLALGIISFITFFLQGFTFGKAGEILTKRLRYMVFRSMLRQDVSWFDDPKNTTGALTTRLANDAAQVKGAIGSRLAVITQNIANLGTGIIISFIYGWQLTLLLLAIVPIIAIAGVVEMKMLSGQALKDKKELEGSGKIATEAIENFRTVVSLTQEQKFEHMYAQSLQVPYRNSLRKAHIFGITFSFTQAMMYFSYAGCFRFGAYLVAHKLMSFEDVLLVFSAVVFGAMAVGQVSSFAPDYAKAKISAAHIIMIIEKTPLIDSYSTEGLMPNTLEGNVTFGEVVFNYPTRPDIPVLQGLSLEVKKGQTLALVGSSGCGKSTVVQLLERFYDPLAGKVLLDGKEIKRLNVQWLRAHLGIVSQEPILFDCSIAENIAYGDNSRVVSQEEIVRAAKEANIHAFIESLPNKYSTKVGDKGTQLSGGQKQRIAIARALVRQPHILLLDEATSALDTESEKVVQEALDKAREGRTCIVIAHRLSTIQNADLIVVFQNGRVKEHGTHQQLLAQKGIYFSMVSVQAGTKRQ

IC50 [1] [µM] | IC50 [2] [µM] | Structure (SMILES)
0.0018 | 0.354 | COc1cc(OC)c2c(c1)O[C@H](c1ccc(OC)c(OC)c1)[C@@H](OC(=O)c1ccc(F)c(NC(=O)c3cc(OC)c(OC)c(OC)c3)c1)C2
0.0022 | 0.341 | COc1cc(OC)c2c(c1)O[C@H](c1ccc(OC)c(OC)c1)[C@H](OC(=O)c1ccc(F)c(NC(=O)c3cc(OC)c(OC)c(OC)c3)c1)C2
